Test system: metastatic adenocarcinoma PC3 prostate Cancer cells
Experiment: viability / killing of PC3 cells
Format: cell-based
Conditions: E266 versus E260; compound (I) as tartarate salt in 0.5% Tween-80; FIG. 6
Protocol: The compound (I), as tartarate salt was dissolved in 0.5% Tween-80 to affect the viability of several cell lines as follows.
The effect of the compound (I) (E266) on the growth profile of cancer cells which express Fer was tested. The cells that were tested were: the metastatic colon cancer cell line—SW620, the metastatic pancreatic ductal-adenocarcinoma SU.86.86 cancer cell-line—SU.86.86, the metastatic Triple Negative breast cancer cell line—MDA-MB-231, and the metastatic prostate cancer cell-line—PC3. The effect of the compound (I) (E266) on FS11 cells, a non malignant fibroblastic cell line, was also studied.

## CC(C)c1ccc(-c2cn3nc(N4CCC(CN5CCN(CCO)CC5)CC4)sc3n2)cc1 [Compound E266, 2-(4-{1-[6-(4-isopropyl-phenyl)-imidazo[2,1-b][1,3,4]thiadiazol-2-yl]-piperidin-4-ylmethyl}-piperazin-1-yl)-ethanol]
  killing metastatic adenocarcinoma PC3 prostate Cancer cells: comparable activity
